The target of this assay is cat T1R1/T1R3 receptor (Felis catus, UniProt E3UMS2). The assay can be described thus: cell-based. Conditions: for function as activators of T1R1/T1R3: in the presence of alanine, in words; for Max resp % of IMP / Max. resp. % of IMP: hek293 cells. The text has this:
HEK293 cells that stably express T1R3 and inducibly express T1R1 were exposed to nucleotide derivatives alone or in combination with one or more amino acids and/or one or more nucleotides to activate the umami receptor. Activation of the T1R1/T1R3 receptor was detected by a change in intracellular calcium levels using a calcium sensitive fluorescent dye and/or a luminescent reporter system. Cells that express T1R3 but not T1R1 were used as a control. A FLIPR® Tetra or a FlexStation® 3 was used for data capture.

Setting [1] is: in the presence of 20 mM alanine, read-out: EC50-with Ala.

The term EC50 denotes the concentration that produces a half-maximal response.

Counter-ions that a name gives are not always drawn. Like-named read-outs stand apart in the source and are kept apart here.

Take “2′-, 3′-O—(N′-methylanthraniloyl)guanosine-5′-O-monophosphate”: the “function as activators of T1R1/T1R3” value is “activators of T1R1/T1R3”.
As to `Nc1ncnc2c1ccn2[C@H]1O[C@@H](COP(=O)(O)O)[C@H](O)[C@@H]1O` (stereo in doubt) [7-Deazaadenosine-5′-O-monophosphate], the “Thres” value amounted to 0.188 mM.
Regarding `O=c1ccn([C@H]2O[C@@H](COP(=O)(O)O)[C@H](O)[C@@H]2O)c(=O)[nH]1` (stereo in doubt) [Uridine 5′-monophosphate disodium salt, reference compound], the “Thres” value is listed as 3.000 mM.
In the case of `O=c1ccn([C@H]2O[C@@H](COP(=O)(O)O)[C@H](O)[C@@H]2O)c(=O)[nH]1` (stereo in doubt) [Uridine 5′-monophosphate disodium salt], where the note is “EC50-with Ala (mM)”, the EC50 was more than 30 mM.
Turning to `O=P(O)(O)OC[C@H]1O[C@@H](n2cnc3c2ncn2ccnc32)[C@H](O)[C@@H]1O` [1,N6-Ethenoadenosine-5′-O-monophosphate], the “Thres” value is listed as 0.010 mM.
For the compound `Nc1nc(Cl)c2ncn(C3OC(COP(=O)(O)O)C(O)C3O)c2n1` (stereo not shown) [2-amino-6-chloropurineriboside-5′-O-monophosphate], the result was active, the “Thres” value was 0.00013 mM and the “Threshold” value was determined as 0.00013 mM.
Regarding `O=P(O)(O)OC[C@H]1O[C@@H](n2cnc3c2ncn2ccnc32)C[C@@H]1O` [2′-Deoxy-1,N6-ethenoadenosine-5′-O-monophosphate], the “Thres” value is on record as 0.05 mM. Under setting [1], the EC50 amounted to 0.2 mM.
As to `CNc1ccccc1C(=O)O[C@H]1C[C@H](n2cnc3c(=O)[nH]c(N)nc32)O[C@@H]1COP(=O)(O)O` [2′-Deoxy-3′-O-(N′-methylanthraniloyl) guanosine-5′-O-monophosphate], the outcome was active, the “Thres” value is listed as 0.0025 mM, the “Max resp % of IMP” value is listed as 23.7 % of IMP and the “Max. resp. % of IMP” value is 23.7 % of IMP. In addition, the “function as activators of T1R1/T1R3” value was “activators of T1R1/T1R3”.
With `CNc1ccccc1C(=O)O[C@H]1C[C@H](n2cnc3c(N)ncnc32)O[C@@H]1COP(=O)(O)O` [2′-Deoxy-3′-O-(N′-methylanthraniloyl)adenosine-5′-O-monophosphate], the “Thres” value is on record as 0.0025 mM. For the same compound, the EC50 under setting [1] was determined as 0.01 mM.
With `Nc1ncnc2c1ncn2[C@H]1C[C@H](O)[C@@H](COP(=O)(O)O)O1` [2′-Deoxyadenosine 5′-monophosphate], the “Thres” value worked out at 0.035 mM.
Same read-out and setting: as for `Nc1ncnc2c1ncn2[C@H]1CC(OP(=O)(O)O)[C@@H](COP(=O)(O)O)O1` (stereo partly shown) [2′-Deoxyadenosine-3′,5′-O-bisphosphate], the figure is 0.005 mM; as for `Nc1ncnc2c1ncn2C1CC(O)C(COP(O)(O)=S)O1` (stereo not shown) [2′-Deoxyadenosine-5′-O-monophosphorothioate], 0.015 mM.
With `Nc1nc2c(ncn2[C@H]2C[C@H](OP(=O)(O)O)[C@@H](COP(=O)(O)O)O2)c(=O)[nH]1` [2′-Deoxyguanosine-3′,5′-O-bisphosphate], the result was active, the “Max resp ΔF/F” value is listed as 1.8925 ΔF/F, the “Max resp. (ΔF/F)” value was 1.8925 ΔF/F and the “Thres” value was found to be 0.005 mM. Also, the “Threshold” value was found to be 0.005 mM, the “Max resp % of IMP” value is 152.3 % of IMP, the “Max. resp. % of IMP” value is on record as 152.3 % of IMP and the “function as activators of T1R1/T1R3” value is listed as “activators of T1R1/T1R3”. Further, the EC50 under setting [1] was found to be 0.02 mM.
Turning to `Nc1nc2c(ncn2[C@H]2C[C@H](O)[C@@H](COP(O)(O)=S)O2)c(=O)[nH]1` [2′-Deoxyguanosine-5′-O-monophosphorothioate (5′-dGMPS)], the “Thres” value is on record as 0.005 mM.
As to `Nc1nc2c(ncn2[C@H]2C[C@H](O)[C@@H](COP(O)(O)=S)O2)c(=O)[nH]1` [2′-Deoxyguanosine-5′-O-monophosphorothioate,sodiumsalt], the “Thres” value came to 0.0025 mM and the “Max resp % of IMP” value was 86.7 % of IMP.
Turning to `O=c1[nH]cnc2c1ncn2C1CC(O)C(COP(O)(O)=S)O1` (stereo not shown) [2′-Deoxyinosine-5′-O-monophosphorothioate], the “Thres” value was found to be 0.025 mM.
In the case of `O=c1ccn([C@H]2C[C@H](O)[C@@H](COP(O)(O)=S)O2)c(=O)[nH]1` [2′-Deoxyuridine-5′-O-monophosphosphorothioate (5′-dUMPS)], the outcome was active, the “Max resp ΔF/F” value is on record as 0.4200 ΔF/F, the “Max resp. (ΔF/F)” value is reported as 0.4200 ΔF/F and the “Thres” value came to 5.000 mM. Further, the “Threshold” value is listed as 5.000 mM and the “Max resp % of IMP” value is recorded as 43.4 % of IMP.
For `O=c1ccn([C@H]2C[C@H](O)[C@@H](COP(O)(O)=S)O2)c(=O)[nH]1` [2′-Deoxyuridine-5′-O-monophosphosphorothioate], the EC50 is, setting by setting: (EC50 (mM)) more than 30 mM; (EC50-with Ala (mM)) more than 30 mM.
For `NC(=O)c1ncn(C2OC(COP(=O)(O)O)C(O)C2O)c1N` [5-Aminoimidazole-4-carboxamide-1-β-D-ribofuranosyl 5′-monophosphate], the “Thres” value came to 0.200 mM.
Turning to `O=P(O)(O)OC[C@H]1O[C@@H](n2cnc3c(Cl)ncnc32)C(O)C1O` (stereo partly shown) [6-Chloropurineriboside-5′-O-monophosphate], the “Thres” value turned out to be 0.0005 mM.
For the compound `O=P(O)(O)OCC1OC(n2cnc3c(Cl)ncnc32)C(O)C1O` (stereo not shown) [6-chloropurineriboside-5′-O-monophosphate], the “function as activators of T1R1/T1R3” value is “activators of the T1R1/T1R3 receptor”.
`Nc1nc2c(ncn2[C@@H]2O[C@H](COP(=O)(O)O)[C@@H](O)[C@H]2O)c(=S)[nH]1` [6-thioguanosine-5′-O-monophosphate]: the “function as activators of T1R1/T1R3” value is on record as “activators of T1R1/T1R3”. The EC50 under setting [1] came out at 0.0009 mM.
Consider `Nc1nc2c(nc(Br)n2[C@@H]2O[C@H](COP(=O)(O)O)[C@@H](O)[C@H]2O)c(=O)[nH]1` [8-Bromoguanosine-5′-O-monophosphate], for which the “Thres” value amounted to 1 mM.
Regarding `Nc1ncnc2c1nc(Cl)n2[C@@H]1O[C@H](COP(=O)(O)O)[C@@H](O)[C@H]1O` [8-Chloroadenosine-5′-O-monophosphate], the “Thres” value came out at 0.2 mM, the “Max resp % of IMP” value was 63.6 % of IMP and the “Max. resp. % of IMP” value is 63.6 % of IMP. The EC50 (EC50 (mM), + Alanine (20 mM), Table 15) is 0.8 mM.
With `Nc1ncnc2c1ncn2C1OC(COP(=O)(O)O)C(OP(=O)(O)O)C1O` (stereo not shown) [Adenosine 3′,5′-diphosphate sodium salt, adenosine 3′,5′-diphosphate], the “Thres” value was 0.00025 mM.
Take `Nc1ncnc2c1ncn2[C@@H]1O[C@H](COP(=O)(O)O)[C@@H](O)[C@H]1O` [Adenosine 5′-monophosphate disodium salt, reference compound]: the “Thres” value worked out at 0.003 mM.
In the case of `Nc1ncnc2c1ncn2C1OC(COP(=O)(O)OS(=O)(=O)O)C(O)C1O` (stereo not shown) [Adenosine 5′-phosphosulfate sodium salt, Adenosine 5′-phosphosulfate], the “Thres” value amounted to 0.008 mM. Where the note is “EC50 (mM)”, the 50% effective concentration (EC50) was 0.03 mM.
Regarding `Nc1nc2c(ncn2[C@@H]2O[C@H](COP(=O)(O)O)[C@@H](O)[C@H]2O)c(=O)[nH]1` [GMP, guanosine monophosphate, reference compound], under setting [1], the EC50 stood at 0.02 mM.
`Nc1nc2c(ncn2[C@@H]2O[C@H](COP(=O)(O)OP(=O)(O)O)[C@@H](O)[C@H]2O)c(=O)[nH]1` [Guanosine 5′-diphosphate sodium salt, Guanosine 5′-diphosphate]: the “Thres” value is given as 0.050 mM.
In the case of `Nc1nc2c(ncn2[C@@H]2O[C@H](COP(=O)(O)OP(=O)(O)OP(=O)(O)O)[C@@H](O)[C@H]2O)c(=O)[nH]1` [Guanosine 5′-triphosphate], the result was active and the “Thres” value was determined as 0.175 mM.
As to `Nc1nc2c(ncn2[C@@H]2O[C@H](COP(O)(O)=S)C(O)C2O)c(=O)[nH]1` (stereo partly shown) [Guanosine-5′-monophosphorothioate], the “Thres” value stood at 0.0025 mM and the “function as activators of T1R1/T1R3” value is “activators of T1R1/T1R3”.
`CNc1ncnc2c1ncn2[C@H]1C[C@H](OP(=O)(O)O)[C@@H](COP(=O)(O)O)O1` [MRS 2179 ammonium salt hydrate, 2′-Deoxy-N^6-methyl adenosine 3′,5′-diphosphate diammonium salt]: the result was active and the “Thres” value is 0.013 mM.
For `O=P(O)(O)OC[C@H]1O[C@@H](n2cnc3c(NC4CCCC4)ncnc32)[C@H](O)[C@@H]1O` [N6-Cyclopentyladenosine-5′-O-monophosphate], the “Thres” value came to 0.013 mM.
As to `CNc1ncnc2c1ncn2[C@@H]1O[C@H](COP(=O)(O)O)[C@@H](O)[C@H]1O` [N6-Methyladenosine 5′-monophosphate], the “Thres” value is reported as 0.020 mM.
In the case of `CC(=O)Nc1nc2c(ncn2[C@@H]2O[C@H](COP(=O)(O)O)[C@@H](O)[C@H]2O)c(=O)[nH]1` [N-Acetyl-5′-GMP], the “Thres” value came out at 0.025 mM.
For `NC(=O)c1ncn(C2OC(COP(=O)(O)O)C(O)C2O)n1` (stereo not shown) [Ribavirin 5′-Monophosphate], the “Thres” value is reported as 0.175 mM.
On to `O=c1ccn([C@@H]2O[C@H](COP(=O)(O)O)[C@@H](O)[C@H]2O)c(=O)[nH]1` [UMP, uridine monophosphate, reference compound], for which, where the note is “EC50-with Ala (mM)”, the 50% effective concentration (EC50) was more than 30 mM.
In the case of `Nc1ncnc2c1ncn2[C@@H]1O[C@H](COP(=O)(O)O)[C@@H](O)[C@H]1O` [adenosine monophosphate (AMP), adenosine monophosphate, reference compound], the EC50 (EC50-with Ala (mM)) is 0.011 mM.
For `O=c1nc[nH]c2c1ncn2C1O[C@H](COP(=O)(O)OP(=O)(O)OP(=O)(O)O)[C@@H](O)[C@H]1O` (stereo partly shown) [inosine triphosphate (ITP) trisodium salt], the “Max resp ΔF/F” value is recorded as 0.3 ΔF/F, the “Max resp. (ΔF/F)” value is on record as 0.3 ΔF/F, the “Thres” value worked out at 0.02 mM and the “Threshold” value was 0.02 mM.
